Results from patent publication US8138178B2, “Cyclic inhibitors of 11beta-hydroxysteroid dehydrogenase 1” (Vitae Pharmaceuticals, Inc., priority 2008, dated 2012).

Experiments:
[1] = biological target: human recombinant cytochrome P450 3A4 (Homo sapiens, UniProt P08684); test: Biological Test Example 6: CYP3A4 inhibition; assay type: in vitro ADME
[2] = biological target: human recombinant cytochrome P450 2C9 (Homo sapiens, UniProt P11712); test: biochemical
[3] = Biological Test Example 5: fraction unbound in human plasma (equilibrium dialysis); assay type: in vitro ADME
[4] = biological target: human recombinant cytochrome P450 2C19 (Homo sapiens, UniProt P33261); test: Biological Test Example 8: CYP2C19 inhibition; assay type: in vitro ADME
human recombinant cytochrome P450 2C19, sequence (P33261 whole entry): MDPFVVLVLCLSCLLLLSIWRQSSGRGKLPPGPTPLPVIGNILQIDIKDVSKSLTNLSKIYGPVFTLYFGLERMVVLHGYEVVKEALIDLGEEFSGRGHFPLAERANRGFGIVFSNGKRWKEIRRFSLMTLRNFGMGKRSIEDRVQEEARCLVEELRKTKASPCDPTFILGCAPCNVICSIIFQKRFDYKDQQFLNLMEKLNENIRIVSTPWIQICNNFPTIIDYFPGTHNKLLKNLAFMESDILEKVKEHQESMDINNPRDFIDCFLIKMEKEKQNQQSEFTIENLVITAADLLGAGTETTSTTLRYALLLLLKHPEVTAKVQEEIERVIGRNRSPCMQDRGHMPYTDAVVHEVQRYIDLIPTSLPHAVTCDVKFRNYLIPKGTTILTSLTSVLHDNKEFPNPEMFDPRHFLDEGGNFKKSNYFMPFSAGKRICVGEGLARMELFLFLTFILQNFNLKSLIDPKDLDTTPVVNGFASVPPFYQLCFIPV

human recombinant cytochrome P450 3A4, sequence (P08684 whole entry): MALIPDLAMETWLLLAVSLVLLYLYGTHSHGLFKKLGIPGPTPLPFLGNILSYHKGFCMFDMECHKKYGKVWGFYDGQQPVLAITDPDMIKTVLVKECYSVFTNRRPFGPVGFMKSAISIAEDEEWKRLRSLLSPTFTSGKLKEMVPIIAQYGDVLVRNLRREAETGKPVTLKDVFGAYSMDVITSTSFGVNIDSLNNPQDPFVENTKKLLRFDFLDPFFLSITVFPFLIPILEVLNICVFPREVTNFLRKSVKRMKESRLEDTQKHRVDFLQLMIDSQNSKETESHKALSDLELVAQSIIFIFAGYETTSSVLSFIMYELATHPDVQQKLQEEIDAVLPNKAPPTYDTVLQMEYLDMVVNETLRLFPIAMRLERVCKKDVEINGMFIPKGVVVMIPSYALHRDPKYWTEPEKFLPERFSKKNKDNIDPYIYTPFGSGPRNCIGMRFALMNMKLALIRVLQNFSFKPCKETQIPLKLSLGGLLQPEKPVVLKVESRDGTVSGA
human recombinant cytochrome P450 2C9, sequence (P11712 whole entry): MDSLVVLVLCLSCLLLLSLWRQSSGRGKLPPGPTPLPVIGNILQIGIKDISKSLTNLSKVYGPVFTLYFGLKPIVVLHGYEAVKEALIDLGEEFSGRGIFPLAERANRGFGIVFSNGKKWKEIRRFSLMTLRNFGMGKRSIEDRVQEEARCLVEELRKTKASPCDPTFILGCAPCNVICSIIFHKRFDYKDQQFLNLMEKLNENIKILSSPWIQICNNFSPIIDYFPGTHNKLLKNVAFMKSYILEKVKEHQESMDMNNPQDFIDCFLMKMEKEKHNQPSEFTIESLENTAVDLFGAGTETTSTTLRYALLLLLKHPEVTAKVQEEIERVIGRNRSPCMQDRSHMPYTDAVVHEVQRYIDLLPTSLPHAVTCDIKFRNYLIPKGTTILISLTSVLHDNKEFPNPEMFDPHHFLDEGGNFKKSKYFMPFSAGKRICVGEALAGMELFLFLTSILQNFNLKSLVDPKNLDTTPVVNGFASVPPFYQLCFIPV

Row | Compound | fraction unbound [3] | IC50 [1] [µM] | other results
1 | C[C@@H](c1ccc(-c2ccc(=O)n(C)c2)cc1)N1CC[C@](CC(C)(C)O)(c2ccccc2F)OC1=O [Example 23, (S)-6-(2-fluorophenyl)-6-(2-hydroxy-2-methylpropyl)-3-((S)-1-(4-(1-methyl-6-oxo-1,6-dihydropyridin-3-yl)phenyl)ethyl)-1,3-oxazinan-2-one] | – | > 50 | IC50 [2]: > 50 µM
2 | C[C@@H](c1ccc(-c2ccc(=O)n(C)c2)cc1)N1CC[C@](CCCO)(c2ccccc2)OC1=O [Example 30, (R)-6-(3-hydroxypropyl)-3-((S)-1-(4-(1-methyl-6-oxo-1,6-dihydropyridin-3-yl)phenyl)ethyl)-6-phenyl-1,3-oxazinan-2-one] | 0.139 | – | –
3 | C[C@@H](c1ccc(-c2ccc(=O)n(C)c2)cc1)N1CC[C@](CC(C)(C)O)(c2ccc(F)cc2)OC1=O [Example 32, (S)-6-(4-fluorophenyl)-6-(2-hydroxy-2-methylpropyl)-3-((S)-1-(4-(1-methyl-6-oxo-1,6-dihydropyridin-3-yl)phenyl)ethyl)-1,3-oxazinan-2-one] | 0.123 | – | –
4 | C[C@@H](c1ccc(-c2ccc(=O)n(C)c2)cc1)N1CC[C@](CC(C)(C)O)(c2ccccc2)OC1=O [Example 37, (S)-6-(2-hydroxy-2-methylpropyl)-3-((S)-1-(4-(1-methyl-6-oxo-1,6-dihydropyridin-3-yl)phenyl)ethyl)-6-phenyl-1,3-oxazinan-2-one] | 0.146 | – | –
5 | C[C@@H](c1ccc(-c2ccn(C)c(=O)c2)cc1)N1CC[C@](CC(C)(C)O)(c2ccccc2)OC1=O [Example 48, (S)-6-(2-hydroxy-2-methylpropyl)-3-((S)-1-(4-(1-methyl-2-oxo-1,2-dihydropyridin-4-yl)phenyl)ethyl)-6-phenyl-1,3-oxazinan-2-one] | 0.087 | – | –
6 | CC[C@@H](c1ccc(-c2ccc(=O)n(CC)c2)cc1)N1CC[C@](CC(C)(C)O)(c2ccccc2)OC1=O [Example 52, (S)-3-((S)-1-(4-(1-ethyl-6-oxo-1,6-dihydropyridin-3-yl)phenyl)propyl)-6-(2-hydroxy-2-methylpropyl)-6-phenyl-1,3-oxazinan-2-one] | 0.09 | 48 | IC50 [4]: 8 µM
7 | COC[C@]1(c2ccccc2)CCN([C@@H](C)c2ccc(-c3ccc(=O)n(C)c3)cc2)C(=O)O1 [Example 77, (R)-6-Methoxymethyl-3-{(S)-1-[4-(1-methyl-6-oxo-1,6-dihydro-pyridin-3-yl)-phenyl]-ethyl}-6-phenyl-[1,3]oxazinan-2-one] | – | > 50 | IC50 [2]: > 50 µM
8 | (S)-3-((S)-1-(4-(1-(difluoromethyl)-2-oxo-1,2-dihydropyridin-4-yl)phenyl)ethyl)-6-(2-hydroxy-2-methylpropyl)-6-phenyl-1,3-oxazinan-2-one [Example 5] | – | 29 | –

The next lines start with results.

Row | fraction unbound [3] | Compound | IC50 [1] [µM] | other results
9 | 0.128 | CCn1cc(-c2ccc([C@H](C)N3CC[C@](CC(C)(C)O)(c4ccccc4)OC3=O)cc2)ccc1=O [Example 53, (S)-3-((S)-1-(4-(1-ethyl-6-oxo-1,6-dihydropyridin-3-yl)phenyl)ethyl)-6-(2-hydroxy-2-methylpropyl)-6-phenyl-1,3-oxazinan-2-one] | – | –
10 | 0.091 | CC[C@@H](c1ccc(-c2ccc(=O)n(C)c2)cc1)N1CC[C@](CC(C)(C)O)(c2ccccc2)OC1=O [Example 54, (S)-6-(2-hydroxy-2-methylpropyl)-3-((S)-1-(4-(1-methyl-6-oxo-1,6-dihydropyridin-3-yl)phenyl)propyl)-6-phenyl-1,3-oxazinan-2-one] | – | –
11 | 0.071 | CC[C@@H](c1ccc(-c2ccn(C)c(=O)c2)cc1)N1CC[C@](CC(C)(C)O)(c2ccccc2)OC1=O [Example 55, (S)-6-(2-hydroxy-2-methylpropyl)-3-((S)-1-(4-(1-methyl-2-oxo-1,2-dihydropyridin-4-yl)phenyl)propyl)-6-phenyl-1,3-oxazinan-2-one] | – | –
12 | 0.055 | C[C@@H](c1ccc(-c2ccn(CC(F)(F)F)c(=O)c2)cc1)N1CC[C@](CC(C)(C)O)(c2ccccc2)OC1=O [Example 66, (S)-6-(2-hydroxy-2-methylpropyl)-3-((S)-1-(4-(2-oxo-1-(2,2,2-trifluoroethyl)-1,2-dihydropyridin-4-yl)phenyl)ethyl)-6-phenyl-1,3-oxazinan-2-one] | – | –
13 | 0.156 | C[C@@H](c1ccc(-c2ccn(C3CC3)c(=O)c2)cc1)N1CC[C@](CC(C)(C)O)(c2ccccc2)OC1=O [Example 75, 3-{(S)-1-[4-(1-Cyclopropyl-2-oxo-1,2-dihydro-pyridin-4-yl)-phenyl]-ethyl}-(S)-6-(2-hydroxy-2-methyl-propyl)-6-phenyl-[1,3]oxazinan-2-one] | – | –
